From patent publication US12077503B2, “Substituted cyclic amides and their use as herbicides” (FMC CORPORATION, priority 2015, dated 2024)

What was measured:
Assay type in all cases: in vivo
[1] = system: blackgrass (Alopecurus myosuroides); experiment: Test A postemergence; details: Alopecurus myosuroides, post-emergence, 240 h, Postemergence
Method in brief: (§1)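 Visual injury, scored on a 0–100 scale relative to untreated controls, was recorded about 10 d after application. Treatments were a preemergence soil spray over planted seeds or a postemergence spray on plants at the one- to two-leaf stage, 2 to 10 cm tall, all in loam soil–sand blend in the greenhouse.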

[2] = system: Galium (catchweed bedstraw, Galium aparine); experiment: Test A postemergence; details: Galium, post-emergence, 240 h, Postemergence
Method in brief: as §1

corn (Zea mays) = experiment: Test A postemergence; details: Zea mays, post-emergence, 240 h, Postemergence
Method in brief: as §1

[3] = system: wheat (Triticum aestivum); experiment: Test A postemergence; details: Triticum aestivum, post-emergence, 240 h, Postemergence
Method in brief: as §1

[4] = system: ryegrass, Italian (Italian ryegrass, Lolium multiflorum); experiment: Test A postemergence; details: Lolium multiflorum, post-emergence, 240 h, Postemergence
Method in brief: as §1

[5] = system: ragweed (common ragweed, Ambrosia elatior); experiment: Test A postemergence; details: Ambrosia artemisiifolia, post-emergence, 240 h, Postemergence
Method in brief: as §1

[6] = system: pigweed (Amaranthus retroflexus); experiment: Test A postemergence; details: Amaranthus retroflexus, post-emergence, 240 h, Postemergence
Method in brief: as §1

Kochia (Kochia scoparia) [7] = experiment: Test A postemergence; details: Bassia scoparia, post-emergence, 240 h, Postemergence
Method in brief: as §1

[8] = system: barnyardgrass (Echinochloa crus-galli); experiment: Test A postemergence; details: Echinochloa crus-galli, post-emergence, 240 h, Postemergence
Method in brief: as §1

[9] = system: giant foxtail (Setaria faberii); experiment: Test A postemergence; details: Setaria faberi, post-emergence, 240 h, Postemergence
Method in brief: as §1

[10] = system: ryegrass, Italian (Italian ryegrass, Lolium multiflorum); experiment: Test A preemergence; details: Lolium multiflorum, pre-emergence, 240 h, Preemergence
Method in brief: as §1

[11] = system: ragweed (common ragweed, Ambrosia elatior); experiment: Test A preemergence; details: Ambrosia artemisiifolia, pre-emergence, 240 h, Preemergence
Method in brief: as §1

[12] = system: pigweed (Amaranthus retroflexus); experiment: Test A preemergence; details: Amaranthus retroflexus, pre-emergence, 240 h, Preemergence
Kochia (Kochia scoparia) [13] = experiment: Test A preemergence; details: Bassia scoparia, pre-emergence, 240 h, Preemergence
Method in brief: as §1

[14] = system: barnyardgrass (Echinochloa crus-galli); experiment: Test A preemergence; details: Echinochloa crus-galli, pre-emergence, 240 h, Preemergence
Method in brief: as §1

[15] = system: giant foxtail (Setaria faberii); experiment: Test A preemergence; details: Setaria faberi, pre-emergence, 240 h, Preemergence
Method in brief: as §1

[16] = system: ducksalad (Heteranthera limosa); experiment: Test B flooded paddy test; details: Heteranthera limosa, 360 h, Flood, 250 g ai/ha; visually evaluated after 13 to 15 d; read-out: Plant response rating, Ducksalad (0 to 100 scale where 0 is no effect and 100 is complete control)
Method in brief: (§2)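 Percent control, visually estimated after 13–15 d in the greenhouse on a 0–100 basis, compares treated pots with untreated ones; compound was put into paddy water 3 cm above the soil when plants had two leaves.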

[17] = system: sedge, umbrella (small-flower umbrella sedge, Cyperus difformis); experiment: Test B flooded paddy test; details: Cyperus difformis, 360 h, Flood, 250 g ai/ha; visually evaluated after 13 to 15 d; read-out: Plant response rating, Sedge, Umbrella (0 to 100 scale where 0 is no effect and 100 is complete control)
Method in brief: as §2

rice (Oryra sativa) = experiment: Test B flooded paddy test; details: Oryza sativa, 360 h, Flood, 250 g ai/ha; visually evaluated after 13 to 15 d; read-out: Plant response rating, Rice (0 to 100 scale where 0 is no effect and 100 is complete control)
Method in brief: as §2

[18] = system: barnyardgrass (Echinochloa crus-galli); experiment: Test B flooded paddy test; details: Echinochloa crus-galli, 360 h, Flood, 250 g ai/ha; visually evaluated after 13 to 15 d; read-out: Plant response rating, Barnyardgrass (0 to 100 scale where 0 is no effect and 100 is complete control)
Method in brief: as §2

## CN1C[C@H](c2ccc(Cl)cc2)[C@@H](C(=O)Nc2cccc(F)n2)C1=O [Compound 1399]
[1]; 31 g ai/ha, 0 is no effect, 100 is complete control, read-out: Blackgrass plant response rating (0 to 100 scale)
  pest or weed control at 31 g/ha: 20%
[1]; 125 g ai/ha, visual injury after approx. 10 d, 0 to 100 scale, 0 no effect, 100 complete control, read-out: Plant response rating, Blackgrass
  pest or weed control at 125 g/ha: 20%
[2]; 31 g ai/ha, 0 is no effect, 100 is complete control, read-out: Galium plant response rating (0 to 100 scale)
  pest or weed control at 31 g/ha: 40%
[2]; 125 g ai/ha, visual injury after approx. 10 d, 0 to 100 scale, 0 no effect, 100 complete control, read-out: Plant response rating, Galium
  pest or weed control at 125 g/ha: 60%
Corn (Zea mays); 31 g ai/ha, 0 is no effect, 100 is complete control, read-out: Corn plant response rating (0 to 100 scale)
  plant injury at 31 g/ha: 0%
Corn (Zea mays); 125 g ai/ha, visual injury after approx. 10 d, 0 to 100 scale, 0 no effect, 100 complete control
  Corn plant response rating (crop injury, 0 = no effect, 100 = complete kill) at 125 g/ha: 0%
[3]; 31 g ai/ha, 0 is no effect, 100 is complete control, read-out: Wheat plant response rating (0 to 100 scale)
  plant injury at 31 g/ha: 0%
[3]; 125 g ai/ha, visual injury after approx. 10 d, 0 to 100 scale, 0 no effect, 100 complete control, read-out: Plant response rating, Wheat
  plant injury at 125 g/ha: 20%
[4]; 31 g ai/ha, 0 is no effect, 100 is complete control, read-out: Ryegrass, Italian plant response rating (0 to 100 scale)
  pest or weed control at 31 g/ha: 20%
[4]; 125 g ai/ha, visual injury after approx. 10 d, 0 to 100 scale, 0 no effect, 100 complete control, read-out: Plant response rating, Ryegrass, Italian
  pest or weed control at 125 g/ha: 20%
[5]; 31 g ai/ha, 0 is no effect, 100 is complete control, read-out: Ragweed plant response rating (0 to 100 scale)
  pest or weed control at 31 g/ha: 0%
[5]; 125 g ai/ha, visual injury after approx. 10 d, 0 to 100 scale, 0 no effect, 100 complete control, read-out: Plant response rating, Ragweed
  pest or weed control at 125 g/ha: 40%
[6]; 31 g ai/ha, 0 is no effect, 100 is complete control, read-out: Pigweed plant response rating (0 to 100 scale)
  pest or weed control at 31 g/ha: 0%
[6]; 125 g ai/ha, visual injury after approx. 10 d, 0 to 100 scale, 0 no effect, 100 complete control, read-out: Plant response rating, Pigweed
  pest or weed control at 125 g/ha: 40%
Kochia (Kochia scoparia) [7]; 31 g ai/ha, 0 is no effect, 100 is complete control, read-out: Kochia plant response rating (0 to 100 scale)
  pest or weed control at 31 g/ha: 50%
Kochia (Kochia scoparia) [7]; 125 g ai/ha, visual injury after approx. 10 d, 0 to 100 scale, 0 no effect, 100 complete control, read-out: Plant response rating, Kochia
  pest or weed control at 125 g/ha: 70%
[8]; 31 g ai/ha, 0 is no effect, 100 is complete control, read-out: Barnyardgrass plant response rating (0 to 100 scale)
  pest or weed control at 31 g/ha: 90%
[8]; 125 g ai/ha, visual injury after approx. 10 d, 0 to 100 scale, 0 no effect, 100 complete control, read-out: Plant response rating, Barnyardgrass
  pest or weed control at 125 g/ha: 90%
[9]; 31 g ai/ha, 0 is no effect, 100 is complete control, read-out: Foxtail, Giant plant response rating (0 to 100 scale)
  pest or weed control at 31 g/ha: 70%
[9]; 125 g ai/ha, visual injury after approx. 10 d, 0 to 100 scale, 0 no effect, 100 complete control, read-out: Plant response rating, Foxtail, Giant
  pest or weed control at 125 g/ha: 90%
[10]; 31 g ai/ha, 0 to 100 scale where 0 is no effect and 100 is complete control, read-out: Ryegrass, Italian plant response rating
  pest or weed control at 31 g/ha: 0%
[10]; 125 g ai/ha, 0 to 100 scale (0 no effect, 100 complete control), read-out: Plant response rating, Ryegrass, Italian
  pest or weed control at 125 g/ha: 40%
[11]; 31 g ai/ha, 0 to 100 scale where 0 is no effect and 100 is complete control, read-out: Ragweed plant response rating
  pest or weed control at 31 g/ha: 50%
[11]; 125 g ai/ha, 0 to 100 scale (0 no effect, 100 complete control), read-out: Plant response rating, Ragweed
  pest or weed control at 125 g/ha: 60%
[12]; 31 g ai/ha, 0 to 100 scale where 0 is no effect and 100 is complete control, read-out: Pigweed plant response rating
  pest or weed control at 31 g/ha: 30%
[12]; 125 g ai/ha, 0 to 100 scale (0 no effect, 100 complete control), read-out: Plant response rating, Pigweed
  pest or weed control at 125 g/ha: 30%
Kochia (Kochia scoparia) [13]; 31 g ai/ha, 0 to 100 scale where 0 is no effect and 100 is complete control, read-out: Kochia plant response rating
  pest or weed control at 31 g/ha: 20%
Kochia (Kochia scoparia) [13]; 125 g ai/ha, 0 to 100 scale (0 no effect, 100 complete control), read-out: Plant response rating, Kochia
  pest or weed control at 125 g/ha: 70%
[14]; 31 g ai/ha, 0 to 100 scale where 0 is no effect and 100 is complete control, read-out: Barnyardgrass plant response rating
  pest or weed control at 31 g/ha: 80%
[14]; 125 g ai/ha, 0 to 100 scale (0 no effect, 100 complete control), read-out: Plant response rating, Barnyardgrass
  pest or weed control at 125 g/ha: 90%
[15]; 31 g ai/ha, 0 to 100 scale where 0 is no effect and 100 is complete control, read-out: Foxtail, Giant plant response rating
  pest or weed control at 31 g/ha: 90%
[15]; 125 g ai/ha, 0 to 100 scale (0 no effect, 100 complete control), read-out: Plant response rating, Foxtail, Giant
  pest or weed control at 125 g/ha: 90%
[16]
  pest or weed control at 250 g/ha: 100%
[17]
  pest or weed control at 250 g/ha: 0%
Rice (Oryra sativa)
  pest or weed control at 250 g/ha: 15%
[18]
  pest or weed control at 250 g/ha: 85%
